2 compounds from ChEMBL document CHEMBL1141615, “Targeting RNA with cysteine-constrained peptides” (Bioorg Med Chem Lett, 2008) can be followed below.

The assay in a line: Binding affinity to BIV transactivating response element RNA. On the set-up: species or system Bovine immunodeficiency virus.

For orientation: Kd means the concentration at which binding is half-saturated. A low value points to a tighter complex. For `C[C@@H](O)[C@@H]1NC(=O)[C@H](CO)NC(=O)[C@H](Cc2c[nH]c3ccccc23)NC(=O)[C@H](CCC(N)=O)NC(=O)[C@H](Cc2cnc[nH]2)NC(=O)[C@H]([C@@H](C)O)NC(=O)[C@@H](N)CSSC[C@H](C(N)=O)NC(=O)[C@H](CCCCN)NC1=O`, the Kd was found to be 9.1 µM.
In turn, `C[C@@H](O)[C@@H]1NC(=O)CNC(=O)[C@@H](N)CSSC[C@H](C(N)=O)NC(=O)[C@H](CCC(N)=O)NC(=O)[C@@H]2CCCN2C(=O)[C@H](Cc2c[nH]cn2)NC(=O)[C@H](Cc2cnc[nH]2)NC(=O)[C@H](Cc2c[nH]c3ccccc23)NC1=O` returned a Kd of 7.9 µM.
